Entries after “also recorded” stand apart in the source; their conditions may differ.
What was measured:
[1] = tested on: 4T1 cells; assay: Extracellular vesicle concentration, Nanosight nanoparticle analyzer, 4T1 cells; assay type: cell-based, mouse; conditions: 1 μM
Protocol: The current PD-L1 and PD1 therapies apply PD-L1 or PD1 monoclonal antibodies to block the PD-L1/PD1 signaling, which results in cytotoxic T cells recognizing and killing the tumor cells. […] First, flow cytometry-based quantification of plasma membrane levels of PD-L1 in 4T1 cells treated with or without 6J1 (1 μM) for 24 h. 4T1 cells are treated with or without 6J1 (1 μM) for 24 h. The supernatant is collected, and the concentration of extracellular vesicle is determined using a Nanosight nanoparticle analyzer in FIG. 8b. The exosomes are also collected and subjected to western blot analysis of the EVs marker and PD-L1 in FIG. 8c.
To assess whether the in vivo antitumor growth effect of 6J1 is related to its effect on PD-L1 in 4T1 cells, inventors knock out PD-L1 via CRISPR/Cas9 in 4T1 cells (FIG. 10a). 4T1-NC or 4T1-PD-L1 knockout cells are treated with or without 6J1 (1 μM) for 24 h. The supernatant is collected, and the concentration of extracellular vesicle is determined using a Nanosight nanoparticle analyzer. The exosomes are also collected and subjected to western blot analysis of the EVs marker and PD-L1. […] Inventors then transplant control or PD-L1-knockout 4T1 cells into the fat pad of syngeneic female Balb/c mice. The mice are randomly divided (n=5 per group) and treated with either buffer or 6J1 (30 mg/kg, daily) via oral gavage.
Therefore, it is possible that the increased exosomal PD-L1 secretion induced by 6J1 may still suppress the tumor-infiltrating T cell cytotoxicity in vivo, even though 6J1 reduces the cell surface expression level of PD-L1 on the tumor cells. To evaluate the role of exosomal PD-L1 in the tumor microenvironment and tumor progression in mice, inventors knock out Rab27a in 4T1 cells to inhibit the secretion of exosomes. 4T1-shNC or 4T1-shRab27A cells are treated with or without 6J1 (1 μM). The supernatant is collected, and the concentration of extracellular vesicle is determined using a Nanosight nanoparticle analyzer. […] Inventors analyze the plasma membrane levels of PD-L1 in 4T1-shNC or 4T1-shRab27A cells treated with or without 6J1 (1 μM). […]

[2] = tested on: 4T1 cells; assay: T cell-mediated tumor cell killing assay; assay type: cell-based, mouse; conditions: 6J1 (1 µM) per FIG. 8d legend, CCK8 assay
[3] = tested on: 4T1 mouse mammary carcinoma; assay: Orthotopic 4T1 mammary carcinoma model in syngeneic Balb/c mice; assay type: in vivo; conditions: oral gavage, daily
Protocol: To determine whether 6J1 can promote anti-cancer immunity in vivo, 4T1 cells are orthotopically transplanted into syngeneic Balb/c mice. The mice are randomly divided into three groups (n=7 per group) and treated with either buffer or 6J1 (15 or 30 mg/kg, daily) via oral gavage. Tumor volume and body weight of mice are measured at the indicated time point. After the tumor reaches the indicated size, the mice are treated with 6J1 (via oral gavage) at different doses (15 mg/kg or 30 mg/kg) daily for 4 weeks. […] The effective dosages of 6J1 in vivo can range from about 0.1 mg/kg to about 300 mg/kg; or from about 1 mg/kg to about 200 mg/kg; or from about 3 mg/kg to about 100 mg/kg, taking into account, for example, activity and toxicity

[4] = Oral bioavailability (stated, no method); conditions: in vivo
[5] = tested on: HeLa cells; assay: Fluorescent transferrin conjugates recycling assay; assay type: cell-based; conditions: compound 3 h, Transferrin-488 25 μg/ml, flow cytometry
Protocol: A DQ-BSA endocytic trafficking assay screens these compounds. DQ-BSA, a self-quenching dye, is internalized into the cytoplasm by endocytosis, after which it is delivered to the lysosomes for degradation to relieve fluorescence-quenching, resulting in bright fluorescence in cells. HeLa cells are plated on 6-well plates and treated with the indicated compound for 3 h. Then, cells are replaced with Trafficking media containing 10 μg/ml DQ-green BSA with or without drugs (1 μM) and incubated at 37° C. in a 5% CO2 humidified cell culture chamber another 6 h followed by Flow cytometry analysis. […] Inventors also test whether these hit compounds can inhibit the recycling endosomal pathway by performing the fluorescent transferrin conjugates recycling assay. Iron-bound transferrin interacts with its receptor (TfR) to trigger the internalization of the iron-transferrin-TfR complex via clathrin-mediated endocytosis. Fe^3+ irons are subsequently dissociated from their ligands in the acidic endosome environment and released into the cytoplasm. […] Thus, the fluorescence intensity of fluorescent transferrin conjugates-labeled cells can reflect the recycling endocytic trafficking process. […] Cells are collected for flow cytometry analysis, and the mean fluorescence intensity of transferrin is quantified.

[6] = isolated tumor-infiltrating lymphocytes

OCCOCCN(c1ccccc1)c1nc(N/N=C/c2cccc(I)c2)nc(N2CCOCC2)n1 [Compound 6J1]
6J1-induced EVs secretion ([1]; 4T1-shRab27A cells): significantly inhibits 6J1-induced EVs secretion
6J1-induced EVs secretion ([1]; PD-L1-knockout 4T1 cells, 24 h): does not affect 6J1-induced EVs secretion
sensitivity of 4T1 cells to pre-activated T cell-mediated cytolysis [2]: more sensitive to pre-activated T cell-mediated cytolysis
cell surface expression of PD-L1 in the primary tumors ([3]; 30 mg/kg): down-regulated
tumor growth ([3]; 30 mg/kg, 4 weeks): significantly decreases the tumor growth
body weight of mice ([3]; 15 or 30 mg/kg, 4 weeks): does not change the body weight of mice
expression of IFN-γ in CD8+ T cells [3, 6]: little effect
tumor-infiltrating CD8+ T cell populations [3, 6]: significantly increases the tumor infiltrating CD8+ T cell populations; also recorded: significantly increases the tumor-infiltrating CD8+ T cell populations
oral bioavailability [4]: good oral bioavailability
recycling endosomal trafficking of transferrin (mean fluorescence intensity) [5]: effectively inhibit the recycling endosomal trafficking of transferrin; also recorded: performs best

Source: US11986482B2, “Method of promoting antitumor or anti-cancer immunity” (City University of Hong Kong, priority 2021, dated 2024)
